This is an account of results in patent publication US10329286B2, “FXR (NR1H4) modulating compounds” (Gilead Sciences, Inc., priority 2016, dated 2019).

Test [1] concerns the target human FXR alpha ligand binding domain (Homo sapiens (Human), UniProt Q96RI1). The test can be described thus: FRET activity assay (LANCE; ligand mediated FXR-LBD / SRC-1 cofactor peptide interaction). The test is classed as biochemical. The method, then: Determination of a ligand mediated cofactor peptide interaction to quantify ligand binding to the nuclear receptor FXR was performed as follows.
Preparation of human FXR alpha ligand binding domain: The human FXRalpha LBD was expressed in E. coli strain BL21(DE3) as an N-terminally GST tagged fusion protein. The DNA encoding the FXR ligand binding domain was cloned into vector pDEST15 (Invitrogen). Expression was under control of an IPTG inducible T7 promoter. The amino acid boundaries of the ligand binding domain were amino acids 187-472 of Database entry NM_005123 (RefSeq).
Expression and purification of the FXR-LBD: An overnight preculture of a transformed E. coli strain was diluted 1:20 in LB-Ampicillin medium and grown at 30° C. to an optical density of OD600=0.4-0.6. Gene expression was then induced by addition of 0.5 mM IPTG. Cells were incubated an additional 6 h at 30° C., 180 rpm. Cells were collected by centrifugation (7000×g, 7 min, rt). Per liter of original cell culture, cells were resuspended in 10 mL lysis buffer (50 mM Glucose, 50 mM Tris pH 7.9, 1 mM EDTA and 4 mg/mL lysozyme) and left on ice for 30 min. Cells were then subjected to sonication and cell debris removed via centrifugation (22000×g, 30 min, 4° C.). Per 10 mL of supernatant 0.5 mL prewashed Glutathione 4B sepharose slurry (Qiagen) was added and the suspension kept slowly rotating for 1 h at 4° C. Glutathione 4B sepharose beads were pelleted by centrifugation (2000×g, 15 sec, 4° C.) and washed twice in wash buffer (25 mM Tris, 50 mM KCl, 4 mM MgCl2 and 1M NaCl). The pellet was resuspended in 3 mL elution buffer per liter of original culture (elution buffer: 20 mM Tris, 60 mM KCl, 5 mM MgCl2 and 80 mM glutathione added immediately prior to use as powder). The suspension was left rotating for 15 min at 4° C., the beads pelleted and eluted again with half the volume of elution buffer than the first time. The eluates were pooled and dialysed overnight in 20 mM Hepes buffer (pH 7.5) containing 60 mM KCl, 5 mM MgCl2 as well as 1 mM dithiothreitol and 10% (v/v) glycerol. The protein was analysed by SDS-Page.
The method measures the ability of putative ligands to modulate the interaction between the purified bacterial expressed FXR ligand binding domain (LBD) and a synthetic biotinylated peptide based on residues 676-700 of SRC-1 (LCD2, 676-700). The sequence of the peptide used was B-[…]-COOH (SEQ ID NO: 1) where the N-terminus was biotinylated (B). The ligand binding domain (LBD) of FXR was expressed as fusion protein with GST in BL-21 cells using the vector pDEST15. Cells were lysed by sonication, and the fusion proteins purified over glutathione sepharose (Pharmacia) according to the manufacturers instructions. For screening of compounds for their influence on the FXR-peptide interaction, the Perkin Elmer LANCE technology was applied. This method relies on the binding dependent energy transfer from a donor to an acceptor fluorophor attached to the binding partner of interest. For ease of handling and reduction of background from compound fluorescence LANCE technology makes use of generic fluorophore labels and time resolved detection.
Assays were done in a final volume of 25 μL in a 384 well plate, in a Tris-based buffer (20 mM Tris-HCl pH 7.5; 60 mM KCl, 5 mM MgCl2; 35 ng/μL BSA), containing 20-60 ng/well recombinantly expressed FXR-LBD fused to GST, 200-600 nM N-terminally biotinylated peptide, representing SRC1 aminoacids 676-700, 200 ng/well Streptavidin-x1APC conjugate (Prozyme) and 6-10 ng/well Eu W1024-antiGST (Perkin Elmer). DMSO content of the samples was kept at 1%. After generation of the assay mix and diluting the potentially FXR modulating ligands, the assay was equilibrated for 1 h in the dark at rt in FIA-plates black 384 well (Greiner). The LANCE signal was detected by a Perkin Elmer VICTOR2VTM Multilabel Counter. The results were visualized by plotting the ratio between the emitted light at 665 and 615 nm. […]

Test [2] has as its target FXR ligand binding domain (Homo sapiens (Human), UniProt Q96RI1). The test can be described thus: Mammalian one hybrid (M1H) Gal4 reporter gene assay in HEK293 cells. The test is classed as cell-based. The method, then: Determination of a ligand mediated Gal4 promoter driven transactivation to quantify ligand binding mediated activation of FXR was performed as follows.
The cDNA part encoding the FXR ligand binding domain was cloned into vector pCMV-BD (Stratagene) as a fusion to the yeast GAL4 DNA binding domain under the control of the CMV promoter. […] The plasmid pFR-Luc (Stratagene) was used as the reporter plasmid, containing a synthetic promoter with five tandem repeats of the yeast GAL4 binding sites, driving the expression of the Photinus pyralis (American firefly) luciferase gene as the reporter gene. In order to improve experimental accuracy the plasmid pRL-CMV (Promega) was cotransfected. pRL-CMV contains the constitutive CMV promoter, controlling the expression of the Renilla reniformis luciferase. All Gal4 reporter gene assays were done in HEK293 cells (obtained from DSMZ, Braunschweig, Germany) grown in MEM with L-Glutamine and Earle's BSS supplemented with 10% fetal bovine serum, 0.1 mM nonessential amino acids, 1 mM sodium pyruvate, and 100 units Penicilin/[…] per mL at 37° C. in 5% CO2. Medium and supplements were obtained from Invitrogen. For the assay, […] cells were plated per well in 96 well plates in 100 μL per well MEM without Phenol Red and L-Glutamine and with Earle's BSS supplemented with 10% charcoal/dextran treated FBS (HyClone, South Logan, Utah), 0.1 mM nonessential amino acids, 2 mM glutamine, 1 mM sodium pyruvate, and 100 units Penicilin/[…] per mL, incubated at 37° C. in 5% CO2. The following day the cells were >90% confluence. […] MEM with the same composition as used for plating cells was added 2-4 h after addition of transfection mixture. Then compound stocks, prediluted in MEM were added (final vehicle concentration not exceeding 0.1%). […] All experiments were done in triplicates.

Setting [3] is: GST-FXR-LBD, biotinylated SRC-1 peptide 676-700, read-out: FRET EC50.
[4] abbreviates: Gal4-FXR-LBD luciferase reporter, HEK293 cells, 16 h, read-out: M1H EC50.

Each structure is given as a SMILES string. Like-named read-outs stand apart in the source and are kept apart here.

Sequence of FXR ligand binding domain (Q96RI1 other isoform, or with tags, fused parts or gaps): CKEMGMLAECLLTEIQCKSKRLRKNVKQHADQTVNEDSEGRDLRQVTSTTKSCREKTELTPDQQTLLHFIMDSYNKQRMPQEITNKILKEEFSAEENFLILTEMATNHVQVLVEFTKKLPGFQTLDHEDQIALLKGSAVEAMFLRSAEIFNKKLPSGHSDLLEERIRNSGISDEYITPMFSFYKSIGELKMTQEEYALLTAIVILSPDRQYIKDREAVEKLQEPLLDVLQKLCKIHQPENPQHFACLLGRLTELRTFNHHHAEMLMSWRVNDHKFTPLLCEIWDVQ
Sequence of human FXR alpha ligand binding domain (Q96RI1 other isoform, or with tags, fused parts or gaps): as above

With `O=C(O)c1ccnc(N2CC(O)(c3ccc(OCc4c(-c5c(Cl)cccc5Cl)noc4C4CC4)cc3Cl)C2)c1` [Comparative Compound 1, reference compound], the concentration giving a half-maximal response (EC50) (as a rule, the concentration giving half of the maximal effect) was found to be 14 nM in test [1] and 774 nM in test [2].

Consider `O=C(O)c1ccnc(N2CC(O)(c3ccc(OCc4c(-c5c(Cl)cncc5Cl)noc4C4CC4)cc3Cl)C2)c1` [Comparative Compound 2, reference compound], for which the EC50 came to 48 nM in test [1] (setting [3]) and 744 nM in test [2] (setting [4]).

On to `O=C(O)c1cc(N2CC(O)(c3ccc(OCc4c(-c5c(Cl)cccc5Cl)noc4C4CC4)cc3Cl)C2)nc(C(F)(F)F)c1` [Comparative Compound 3, reference compound], for which the results for the half-maximal effective concentration (EC50) in test [1] (setting [3]) and in test [2] (setting [4]) were 47 nM and 131 nM, respectively.

Consider `O=C(O)c1ccc(N2CC(O)(c3ccc(OCc4c(-c5c(Cl)cncc5Cl)noc4C4CC4)cc3Cl)C2)nc1` [Example 1, 6-(3-(2-chloro-4-((5-cyclopropyl-3-(3,5-dichloropyridin-4-yl)isoxazol-4-yl)methoxy)phenyl)-3-hydroxyazetidin-1-yl)nicotinic acid], for which the EC50 in test [1] (setting [3]) turned out to be 6.1 nM; in test [2] (setting [4]), 95 nM.

For the molecule `O=C(O)c1ccc(N2CC(O)(c3ccc(OCc4c(-c5c(Cl)cccc5Cl)noc4C4CC4)cc3Cl)C2)nc1` [Example 2, 6-(3-(2-chloro-4-((5-cyclopropyl-3-(2,6-dichlorophenyl)isoxazol-4-yl)methoxy)phenyl)-3-hydroxyazetidin-1-yl)nicotinic acid], the concentration giving a half-maximal response (EC50) in test [1] (setting [3]) turned out to be 2.6 nM; in test [2] (setting [4]), 7.1 nM.

For `Cc1nc(N2CC(O)(c3ccc(OCc4c(-c5c(Cl)cccc5Cl)noc4C4CC4)cc3Cl)C2)ccc1C(=O)O` [Example 3, 6-(3-(2-chloro-4-((5-cyclopropyl-3-(2,6-dichlorophenyl)isoxazol-4-yl)methoxy)phenyl)-3-hydroxyazetidin-1-yl)-2-methylnicotinic acid], the concentration for a half-maximal effect (EC50) turned out to be 4.4 nM in test [1] (setting [3]) and 6.9 nM in test [2] (setting [4]).

For the molecule `Cc1cc(C(=O)O)cnc1N1CC(O)(c2ccc(OCc3c(-c4c(Cl)cccc4Cl)noc3C3CC3)cc2Cl)C1` [Example 4, 6-(3-(2-chloro-4-((5-cyclopropyl-3-(2,6-dichlorophenyl)isoxazol-4-yl)methoxy)phenyl)-3-hydroxyazetidin-1-yl)-5-methylnicotinic acid], the EC50 in test [1] (setting [3]) came to 3.9 nM; in test [2] (setting [4]), 5.1 nM.

Consider `O=C(O)c1cnc(N2CC(O)(c3ccc(OCc4c(-c5c(Cl)cccc5Cl)noc4C4CC4)cc3Cl)C2)c(F)c1` [Example 5, 6-(3-(2-chloro-4-((5-cyclopropyl-3-(2,6-dichlorophenyl)isoxazol-4-yl)methoxy)phenyl)-3-hydroxyazetidin-1-yl)-5-fluoronicotinic acid], for which the figures for the half-maximal effective concentration (EC50) in test [1] (setting [3]) and in test [2] (setting [4]) were 4.8 nM and 4.5 nM, respectively.

Consider `O=C(O)c1ccc(N2CC(O)(c3ccc(OCc4c(-c5c(Cl)cccc5Cl)noc4C4CC4)cc3Cl)C2)nc1C(F)(F)F` [Example 6, 6-(3-(2-chloro-4-((5-cyclopropyl-3-(2,6-dichlorophenyl)isoxazol-4-yl)methoxy)phenyl)-3-hydroxyazetidin-1-yl)-2-(trifluoromethyl)nicotinic acid], for which the EC50 stood at 3.1 nM in test [1] (setting [3]) and 56 nM in test [2] (setting [4]).

On to `Cc1cc(N2CC(O)(c3ccc(OCc4c(-c5c(Cl)cccc5Cl)noc4C4CC4)cc3Cl)C2)ncc1C(=O)O` [Example 7, 6-(3-(2-chloro-4-((5-cyclopropyl-3-(2,6-dichlorophenyl)isoxazol-4-yl)methoxy)phenyl)-3-hydroxyazetidin-1-yl)-4-methylnicotinic acid], for which the EC50 in test [1] (setting [3]) stood at 8.5 nM; in test [2] (setting [4]), 6.7 nM.

Regarding `COc1cccc(OC)c1-c1noc(C2CC2)c1COc1ccc(C2(O)CN(c3ncc(C(=O)O)cc3F)C2)c(Cl)c1` [Example 8, 6-(3-(2-chloro-4-((5-cyclopropyl-3-(2,6-dimethoxyphenyl)isoxazol-4-yl)methoxy)phenyl)-3-hydroxyazetidin-1-yl)-5-fluoronicotinic acid], the concentration for a half-maximal effect (EC50) is 15 nM in test [1] (setting [3]) and 593 nM in test [2] (setting [4]).

`Cc1cc(Cl)c(-c2noc(C3CC3)c2COc2ccc(C3(O)CN(c4ncc(C(=O)O)cc4F)C3)c(Cl)c2)c(Cl)c1` [Example 9, 6-(3-(2-chloro-4-((5-cyclopropyl-3-(2,6-dichloro-4-methylphenyl)isoxazol-4-yl)methoxy)phenyl)-3-hydroxyazetidin-1-yl)-5-fluoronicotinic acid]: the EC50 amounted to 57 nM in test [1] (setting [3]) and 26 nM in test [2] (setting [4]).

Turning to `O=C(O)c1cnc(N2CC(O)(c3ccc(OCc4c(-c5c(Cl)cncc5Cl)noc4C4CC4)cc3Cl)C2)c(F)c1` [Example 10, 6-(3-(2-chloro-4-((5-cyclopropyl-3-(3,5-dichloropyridin-4-yl)isoxazol-4-yl)methoxy)phenyl)-3-hydroxyazetidin-1-yl)-5-fluoronicotinic acid], the EC50 worked out at 3.4 nM in test [1] (setting [3]) and 6.4 nM in test [2] (setting [4]).

For `O=C(O)c1cnc(N2CC(O)(c3ccc(OCc4c(C5CC5)cnn4-c4c(Cl)cccc4Cl)cc3Cl)C2)c(F)c1` [Example 11, 6-(3-(2-chloro-4-((4-cyclopropyl-1-(2,6-dichlorophenyl)-1H-pyrazol-5-yl)methoxy)phenyl)-3-hydroxyazetidin-1-yl)-5-fluoronicotinic acid], the concentration for a half-maximal effect (EC50) is 3.8 nM in test [1] (setting [3]) and 4.9 nM in test [2] (setting [4]).
